Target: CCR2 (Homo sapiens, UniProt P41597)
Assay: calcium flux assay
Type: cell-based
Conditions: read-out: IC50 Ca++ flux
Text: The capacity of the compounds of the invention to antagonize CCR2 function can be determined using a suitable screen (e.g., high throughput assay). For example, an agent can be tested in an extracellular acidification assay, calcium flux assay, ligand binding assay or chemotaxis assay (see, for example, Hesselgesser et al., J Biol. Chem. 273(25):15687-15692 (1998), WO 00/05265 and WO 98/02151).

CCR2, sequence (P41597 whole entry): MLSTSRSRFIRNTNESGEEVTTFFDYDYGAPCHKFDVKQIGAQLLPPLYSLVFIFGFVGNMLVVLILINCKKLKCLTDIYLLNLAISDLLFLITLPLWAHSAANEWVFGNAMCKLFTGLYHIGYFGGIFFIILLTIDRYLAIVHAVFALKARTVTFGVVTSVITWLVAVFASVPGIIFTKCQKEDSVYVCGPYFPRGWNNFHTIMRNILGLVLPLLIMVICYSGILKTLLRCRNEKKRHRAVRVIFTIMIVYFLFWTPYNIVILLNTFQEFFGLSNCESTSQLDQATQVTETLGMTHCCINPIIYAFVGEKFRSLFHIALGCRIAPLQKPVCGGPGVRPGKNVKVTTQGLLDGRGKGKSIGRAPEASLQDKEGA

Row | SMILES | IC50 [nM]
1 | O=C(NCc1cc(C(F)(F)F)cc(C(F)(F)F)c1)C1(Cc2ccncc2)CCN(CC2CCOCC2)CC1 [Example 13, N-(3,5-Bis(trifluoromethyl)benzyl)-4-(pyridin-4-ylmethyl)-1-((tetrahydro-2H-pyran-4-yl)methyl)piperidine-4-carboxamide] | > 1000
2 | CC(C)CC1(C(=O)NCc2cc(C(F)(F)F)cc(C(F)(F)F)c2)CCN(CCN2CCCCC2)CC1 [Example 18, N-(3,5-Bis(trifluoromethyl)benzyl)-4-isobutyl-1-(2-(piperidin-1-yl)ethyl)piperidine-4-carboxamide] | > 1000
3 | CC(C)CC1(C(=O)NCc2cc(C(F)(F)F)cc(C(F)(F)F)c2)CCN(c2ccccn2)CC1 [Example 19, N-(3,5-Bis(trifluoromethyl)benzyl)-4-isobutyl-1-(pyridin-2-yl)piperidine-4-carboxamide] | > 1000
4 | O=C(NCc1cc(C(F)(F)F)cc(C(F)(F)F)c1)C1(CC2CCOCC2)CCN(Cc2ccc3c(c2)OCO3)CC1 [Example 27, 1-(Benzo[d][1,3]dioxol-5-ylmethyl)-N-(3,5-bis(trifluoromethyl)benzyl)-4-((tetrahydro-2H-pyran-4-yl)methyl)piperidine-4-carboxamide] | > 1000
5 | CC(C)CC1(C(=O)N2CCN(c3cccc(C(F)(F)F)c3)CC2)CCN(Cc2ccc3c(c2)OCO3)CC1 [Example 40, (1-(Benzo[d][1,3]dioxol-5-ylmethyl)-4-isobutylpiperidin-4-yl)(4-(3-(trifluoromethyl)phenyl)piperazin-1-yl)methanone] | > 1000
6 | CC(C)CC1(C(=O)N[C@H](C)c2cc(C(F)(F)F)cc(C(F)(F)F)c2)CCN(Cc2ccc3c(c2)OCO3)CC1 [Example 44, (R)-1-(Benzo[d][1,3]dioxol-5-ylmethyl)-N-(1-(3,5-bis(trifluoromethyl)phenyl)ethyl)-4-isobutylpiperidine-4-carboxamide] | > 1000
7 | CC(C)CC1(C(=O)N[C@@H](C)c2cc(C(F)(F)F)cc(C(F)(F)F)c2)CCN(Cc2ccc3c(c2)OCO3)CC1 [Example 45, (S)-1-(benzo[d][1,3]dioxol-5-ylmethyl)-N-(1-(3,5-bis(trifluoromethyl)phenyl)ethyl)-4-isobutylpiperidine-4-carboxamide] | > 1000
8 | CC(C)CC1(C(=O)NCc2cc(C(F)(F)F)cc(C(F)(F)F)c2)CCN(CC(=O)N2CCS(=O)(=O)CC2)CC1 [Example 53, N-(3,5-Bis(trifluoromethyl)benzyl)-4-isobutyl-1-(2-oxo-2-sulphonylmorpholinoethyl)piperidine-4-carboxamide] | > 1000
9 | O=C(NCCN1CCCC1)c1cc(CN2CCC(CC3CC3)(C(=O)NCc3cc(C(F)(F)F)cc(C(F)(F)F)c3)CC2)ccc1F [Example 59, N-(3,5-Bis(trifluoromethyl)benzyl)-4-(cyclopropylmethyl)-1-(4-fluoro-3-(2-(pyrrolidin-1-yl)ethylcarbamoyl)benzyl)piperidine-4-carboxamide] | > 1000

Results, then the compound that gave them:

Row | IC50 [nM] | SMILES
10 | > 1000 | COCC1(C(=O)NCc2cc(C(F)(F)F)cc(C(F)(F)F)c2)CCN(CC2CCOCC2)CC1 [Example 11, N-(3,5-Bis(trifluoromethyl)benzyl)-1-((tetrahydro-2H-pyran-4-yl)methyl)-4-(methoxymethyl)piperidine-4-carboxamide]
11 | > 1000 | CC(C)CC1(C(=O)NCc2cc(C(F)(F)F)cc(C(F)(F)F)c2)CCN(CC2CCOCC2)CC1 [Example 12, N-(3,5-Bis(trifluoromethyl)benzyl)-4-isobutyl-1-((tetrahydro-2H-pyran-4-yl)methyl)piperidine-4-carboxamide]
12 | 200 to 1000 | CC(C)CC1(C(=O)NCc2cc(C(F)(F)F)cc(C(F)(F)F)c2)CCN(Cc2ccc3c(c2)OCO3)CC1 [Example 21, 1-(Benzo[d][1,3]dioxol-5-ylmethyl)-N-(3,5-bis(trifluoromethyl)benzyl)-4-isobutylpiperidine-4-carboxamide]
13 | 200 to 1000 | CC(C)CC1(C(=O)NCc2cc(C(F)(F)F)cc(C(F)(F)F)c2)CCN(C2CCC(O)(c3ccc4c(c3)OCO4)CC2)CC1 (stereo not drawn) [Example 26, 1-(4-(Benzo[d][1,3]dioxol-5-yl)-4-hydroxycyclohexyl)-N-(3,5-bis(trifluoromethyl)benzyl)-4-isobutylpiperidine-4-carboxamide]
14 | < 200 | COc1ccc(CN2CCC(CC(C)C)(C(=O)NCc3cc(C(F)(F)F)cc(C(F)(F)F)c3)CC2)cc1O [Example 30, N-(3,5-Bis(trifluoromethyl)benzyl)-1-(3-hydroxy-4-methoxybenzyl)-4-isobutylpiperidine-4-carboxamide]
15 | < 200 | O=C(NCc1cc(C(F)(F)F)cc(C(F)(F)F)c1)C1(CC2CC2)CCN(Cc2ccc3c(c2)OC(F)(F)O3)CC1 [Example 50, N-(3,5-Bis(trifluoromethyl)benzyl)-4-(cyclopropylmethyl)-1-((2,2-difluorobenzo[d][1,3]dioxol-5-yl)methyl)piperidine-4-carboxamide]
16 | 200 to 1000 | CCS(=O)(=O)NC(=O)c1cc(CN2CCC(CC3CC3)(C(=O)NCc3cc(C(F)(F)F)cc(C(F)(F)F)c3)CC2)ccc1F [Example 64, N-(3,5-Bis(trifluoromethyl)benzyl)-4-(cyclopropylmethyl)-1-(3-(ethylsulfonylcarbamoyl)-4-fluorobenzyl)piperidine-4-carboxamide]
17 | 200 to 1000 | N#Cc1ccc(Oc2ccc(CN3CCC(CC4CC4)(C(=O)NCc4cc(C(F)(F)F)cc(C(F)(F)F)c4)CC3)cn2)cc1 [Example 67, N-(3,5-Bis(trifluoromethyl)benzyl)-1-((6-(4-cyanophenoxy)pyridin-3-yl)methyl)-4-(cyclopropylmethyl)piperidine-4-carboxamide]
18 | 200 to 1000 | CC(C)(CN1CCC(CC2CC2)(C(=O)NCc2cc(C(F)(F)F)cc(C(F)(F)F)c2)CC1)N1CCOCC1 [Example 69, N-(3,5-Bis(trifluoromethyl)benzyl)-4-(cyclopropylmethyl)-1-(2-methyl-2-morpholinopropyl)piperidine-4-carboxamide]
19 | 200 to 1000 | O=C(O)c1cc(CN2CCC(CC3CC3)(C(=O)NCc3cc(C(F)(F)F)cc(C(F)(F)F)c3)C2)ccc1F (stereo not drawn) [Example 79, 5-((3-(3,5-Bis(trifluoromethyl)benzylcarbamoyl)-3-(cyclopropylmethyl)pyrrolidin-1-yl)methyl)-2-fluorobenzoic acid]
20 | 200 to 1000 | COc1ccc(CN2CCC(CC3CC3)(C(=O)NCc3cc(C(F)(F)F)cc(C(F)(F)F)c3)C2)cc1F (stereo not drawn) [Example 80, N-(3,5-Bis(trifluoromethyl)benzyl)-3-(cyclopropylmethyl)-1-(3-fluoro-4-methoxybenzyl)pyrrolidine-3-carboxamide]
21 | < 200 | O=C(NCc1cc(C(F)(F)F)cc(C(F)(F)F)c1)C1(CC2CC2)CCN(CC2CCOCC2)C1 (stereo not drawn) [Example 81, N-(3,5-Bis(trifluoromethyl)benzyl)-3-(cyclopropylmethyl)-1-((tetrahydro-2H-pyran-4-yl)methyl)pyrrolidine-3-carboxamide]
